In US20030157205A1, “Inhibitory and preventative effects of processed morinda citrifolia on mutagenesis and carcinogenesis in mammals” (priority 2001, published 2003):

System: mammary gland carcinogenesis induced by 17 β-estradiol (E2)
Assay: Estrogen (E2 pellet)-induced mammary carcinogenesis in female ACI rats
Format: in vivo
Conditions: for survival rate: control 100%, placebo 0%
Text: This study indicates the preventative effects of Methyl Sulfonyl Methane (MSM), processed Morinda citrifolia products (e.g., Tahitian Noni juice), and their combination on estrogen-induced mammary carcinogenesis in female ACI rats.
In the study, the preventative effects of MSM, Morinda citrifolia, and their combination on mammary gland carcinogenesis induced by 17 β-estradiol (estrogen)(E2) pellet implants in female ACI rats was studied. In the experiment, sixty (60), five week old female rats were divided into four groups, fifteen (15) rats each, and placed on regular diets. Another eight (8) female ACI rats were served as the age-matched controls. Five percent placebo, five percent Morinda citrifolia, five percent MSM, a combination of five percent Morinda citrifolia and MSM in drinking water was supplied to the animals in different groups until ninety days after E2 implantation. Two weeks later, all animals were implanted subcutaneously with a 25 mg pellet containing 22.5 mg of 17 β-estradiol (e2) mixed with 2.5 mg cholesterol, and the age-matched control animals received a 25 mg cholesterol pellet implant.

## CS(C)(=O)=O [MSM, Methyl Sulfonyl Methane]
5% in drinking water, E2-implanted female ACI rats, placebo group had significant loss vs cholesterol control
  body weight loss: slight body weight loss
5% in drinking water, E2 implant, placebo group one hundred percent
  percent of the rats with mammary tumors: fifty-seven
5% in drinking water, E2 implant, placebo group three to seven
  number of tumors per rat: one to four
160 days after E2 implantation
  survival rate: 73%
180 days after E2 implantation
  survival rate: 20%
180 days after E2 implantation, placebo 17
  average tumor area: 12 mm2
200 days after E2 implantation
  survival rate: 0%
